Where two headings read alike, the source gives them in different places.
Tests used:
[1] = target: biotinylated human Gal-3 (hGal-3) (Homo sapiens, UniProt P17931); assay: Competitive binding assay: biotinylated hGal-3 binding to microplate-adsorbed asialofetuin (ASF), spectrophotometric
Summary of the method: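 Competitive binding of biotinylated hGal-3 to plate-adsorbed asialofetuin was measured with serially diluted compounds over 3 h at 4° C. Bound protein was detected with streptavidin-peroxidase and ABTS substrate by absorbance. IC50 values are means of several measurements.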

human Gal-1 (hGal-1) = human Gal-1 (hGal-1) (Homo sapiens, UniProt P09382); assay: Competitive binding assay: biotinylated hGal-1 binding to microplate-adsorbed asialofetuin (ASF), spectrophotometric; details: hGal-1 binding to asialofetuin; Table 15; R and S epimers of selected Examples also listed; read-out: IC50 (Galectin-1 inhibition)
human Gal-1 (hGal-1), sequence (P09382 whole entry): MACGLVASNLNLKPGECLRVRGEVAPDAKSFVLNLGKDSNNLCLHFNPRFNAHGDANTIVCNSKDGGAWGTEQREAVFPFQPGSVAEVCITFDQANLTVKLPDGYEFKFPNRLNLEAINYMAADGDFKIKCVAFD
Summary of the method: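 Biotinylated hGal-1 (300-1000 ng/mL) incubated with compound on asialofetuin-coated plates 3 hours at 4 °C, washed, then streptavidin-peroxidase (80 ng/mL) 1 hour at 4 °C. ABTS substrate read spectrophotometrically; IC50 reported as mean of several measurements.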

[2] = Gal-3 inhibition, Table 5, read-out: IC50
[3] = Table 12, hGal-3, read-out: IC50 (Gal-3 inhibition)
[4] = Gal-3 inhibition, Table 4, read-out: IC50
[5] = Table 13, hGal-3, read-out: IC50 (Gal-3 inhibition)
[6] = Table 9, hGal-3, read-out: IC50 (Gal-3 inhibition)
[7] = Table 8, hGal-3, read-out: IC50 (Gal-3 inhibition)

biotinylated human Gal-3 (hGal-3), sequence (P17931 whole entry): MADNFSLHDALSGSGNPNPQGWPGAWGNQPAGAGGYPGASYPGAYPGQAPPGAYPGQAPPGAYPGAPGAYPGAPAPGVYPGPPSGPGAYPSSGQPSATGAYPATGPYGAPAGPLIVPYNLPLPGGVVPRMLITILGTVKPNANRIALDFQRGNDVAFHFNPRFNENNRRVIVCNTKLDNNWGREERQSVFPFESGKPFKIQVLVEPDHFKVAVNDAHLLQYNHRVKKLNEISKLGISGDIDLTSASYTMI

| IC50 (human Gal-1 (hGal-1)) [nM] | SMILES | also measured |
| --- | --- | --- |
| 90 | CN(C(=O)C(S[C@@H]1O[C@H](CO)[C@H](O)[C@H](n2cc(-c3cc(F)c(F)c(F)c3)nn2)[C@H]1O)C1(O)CCOCC1)C1COC1 (stereo partly drawn) [Example 2.41.235., 2-(((2S,3R,4S,5R,6R)-3,5-Dihydroxy-6-(hydroxymethyl)-4-(4-(3,4,5-trifluorophenyl)-1H-1,2,3-triazol-1-yl)tetrahydro-2H-pyran-2-yl)thio)-2-(4-hydroxytetrahydro-2H-pyran-4-yl)-N-methyl-N-(oxetan-3-yl)acetamide] | IC50 [1, 2]: 60 nM |
| 190 | CO[C@@H]1[C@@H](n2cc(-c3cc(F)c(F)c(F)c3)nn2)[C@@H](O)[C@@H](CO)O[C@H]1SC(C(=O)NC(C)C)C1(O)CCC(F)(F)CC1 (stereo partly drawn) [Example 2.44.251.I., 2-(4,4-Difluoro-1-hydroxycyclohexyl)-2-(((2S,3R,4S,5R,6R)-5-hydroxy-6-(hydroxymethyl)-3-methoxy-4-(4-(3,4,5-trifluorophenyl)-1H-1,2,3-triazol-1-yl)tetrahydro-2H-pyran-2-yl)thio)-N-isopropylacetamide] | IC50 [1, 3]: 90 nM |
| 380 | CN(CCC1CCOCC1)C(=O)C(S[C@@H]1O[C@H](CO)[C@H](O)[C@H](n2cc(-c3cc(F)c(F)c(F)c3)nn2)[C@H]1O)C1(O)CCOCC1 (stereo partly drawn) [Example 2.41.216., 2-(((2S,3R,4S,5R,6R)-3,5-Dihydroxy-6-(hydroxymethyl)-4-(4-(3,4,5-trifluorophenyl)-1H-1,2,3-triazol-1-yl)tetrahydro-2H-pyran-2-yl)thio)-2-(4-hydroxytetrahydro-2H-pyran-4-yl)-N-methyl-N-(2-(tetrahydro-2H-pyran-4-yl)ethyl)acetamide] | IC50 [1, 4]: 60 nM |
| 1100 | CO[C@@H]1[C@@H](n2cc(-c3cc(F)c(F)c(F)c3)nn2)[C@@H](O)[C@@H](CO)O[C@H]1S[C@@H](C(=O)N1CCC(F)(F)CC1)C1(O)CCC2(CCCC2)CC1 [Example 2.71.226R.I., (R)-1-(4,4-Difluoropiperidin-1-yl)-2-(((2S,3R,4S,5R,6R)-5-hydroxy-6-(hydroxymethyl)-3-methoxy-4-(4-(3,4,5-trifluorophenyl)-1H-1,2,3-triazol-1-yl)tetrahydro-2H-pyran-2-yl)thio)-2-(8-hydroxyspiro[4.5]decan-8-yl)ethan-1-one] | IC50 [1, 5]: 670 nM |
| 190 | CO[C@@H]1[C@@H](n2cc(-c3cc(F)c(F)c(F)c3)nn2)[C@@H](O)[C@@H](CO)O[C@H]1SC(C(=O)N1CCC(F)(F)CC1)C1(O)CCC(C)(C)CC1 (stereo partly drawn) [Example 2.68.226.I., 1-(4,4-Difluoropiperidin-1-yl)-2-(1-hydroxy-4,4-dimethylcyclohexyl)-2-(((2S,3R,4S,5R,6R)-5-hydroxy-6-(hydroxymethyl)-3-methoxy-4-(4-(3,4,5-trifluorophenyl)-1H-1,2,3-triazol-1-yl)tetrahydro-2H-pyran-2-yl)thio)ethan-1-one] | IC50 [1, 5]: 100 nM |
| 30 | CO[C@@H]1[C@@H](n2cc(-c3cc(F)c(F)c(F)c3)nn2)[C@@H](O)[C@@H](CO)O[C@H]1S[C@H](C(=O)N(C)c1ccccn1)C1(O)CCC(F)(F)CC1 [Example 2.41.233S.I.] | IC50 [1, 6]: 50 nM |
| 110 | CCN(CC)C(=O)C(S[C@@H]1O[C@H](CO)[C@H](O)[C@H](n2cc(-c3cc(F)c(F)c(F)c3)nn2)[C@H]1O)C1(O)CCOCC1 (stereo partly drawn) [Example 2.41.202., 2-(((2S,3R,4S,5R,6R)-3,5-Dihydroxy-6-(hydroxymethyl)-4-(4-(3,4,5-trifluorophenyl)-1H-1,2,3-triazol-1-yl)tetrahydro-2H-pyran-2-yl)thio)-N,N-diethyl-2-(4-hydroxytetrahydro-2H-pyran-4-yl)acetamide] | IC50 [1, 4]: 50 nM |
| 110 | CCN(C)C(=O)[C@@H](S[C@@H]1O[C@H](CO)[C@H](O)[C@H](n2cc(-c3cc(F)c(F)c(F)c3)nn2)[C@H]1O)C1(O)CC(F)(F)C1 [Example 2.33.203S., (S)-2-(3,3-Difluoro-1-hydroxycyclobutyl)-2-(((2S,3R,4S,5R,6R)-3,5-dihydroxy-6-(hydroxymethyl)-4-(4-(3,4,5-trifluorophenyl)-1H-1,2,3-triazol-1-yl)tetrahydro-2H-pyran-2-yl)thio)-N-ethyl-N-methylacetamide] | IC50 [1, 2]: 50 nM |
| 70 | CO[C@@H]1[C@@H](n2cc(-c3cc(F)c(F)c(F)c3)nn2)[C@@H](O)[C@@H](CO)O[C@H]1S[C@H](C(=O)N1CCC(F)(F)CC1)C1(O)CCC(F)(F)CC1 [Example 2.44.226S.I., (S)-2-(4,4-difluoro-1-hydroxycyclohexyl)-1-(4,4-difluoropiperidin-1-yl)-2-(((2S,3R,4S,5R,6R)-5-hydroxy-6-(hydroxymethyl)-3-methoxy-4-(4-(3,4,5-trifluorophenyl)-1H-1,2,3-triazol-1-yl)tetrahydro-2H-pyran-2-yl)thio)ethan-1-one] | IC50 [1, 3]: 50 nM |
| 60 | CCN(C(=O)C(S[C@@H]1O[C@H](CO)[C@H](O)[C@H](n2cc(-c3cc(F)c(F)c(F)c3)nn2)[C@H]1O)C1(O)CCOCC1)c1ccccc1 (stereo partly drawn) [Example 2.41.232., 2-(((2S,3R,4S,5R,6R)-3,5-Dihydroxy-6-(hydroxymethyl)-4-(4-(3,4,5-trifluorophenyl)-1H-1,2,3-triazol-1-yl)tetrahydro-2H-pyran-2-yl)thio)-N-ethyl-2-(4-hydroxytetrahydro-2H-pyran-4-yl)-N-phenylacetamide] | IC50 [1, 6]: 90 nM |
| 210 | CO[C@@H]1[C@@H](n2cc(-c3cc(F)c(F)c(F)c3)nn2)[C@@H](O)[C@@H](CO)O[C@H]1SC(C(=O)N1CCC(C)(C)CC1)C1(O)CCC(F)(F)CC1 (stereo partly drawn) [Example 2.44.245.I., 2-(4,4-Difluoro-1-hydroxycyclohexyl)-1-(4,4-dimethylpiperidin-1-yl)-2-(((2S,3R,4S,5R,6R)-5-hydroxy-6-(hydroxymethyl)-3-methoxy-4-(4-(3,4,5-trifluorophenyl)-1H-1,2,3-triazol-1-yl)tetrahydro-2H-pyran-2-yl)thio)ethan-1-one] | IC50 [1, 3]: 90 nM |
| 1130 | CCC(O)(CC)C(S[C@@H]1O[C@H](CO)[C@H](O)[C@H](n2cc(-c3cc(F)c(F)c(F)c3)nn2)[C@H]1O)C(=O)N(C)CC1CC1 (stereo partly drawn) [Example 2.32.218., N-(Cyclopropylmethyl)-2-(((2S,3R,4S,5R,6R)-3,5-dihydroxy-6-(hydroxymethyl)-4-(4-(3,4,5-trifluorophenyl)-1H-1,2,3-triazol-1-yl)tetrahydro-2H-pyran-2-yl)thio)-3-ethyl-3-hydroxy-N-methylpentanamide] | IC50 ([1]; Table 6, hGal-3, read-out: IC50 (Gal-3 inhibition)): 710 nM |
| 70 | CCN(C)C(=O)C(S[C@@H]1O[C@H](CO)[C@H](O)[C@H](n2cc(-c3cc(F)c(F)c(F)c3)nn2)[C@H]1O)C1(O)CCN(C(=O)NC2CC2)CC1 (stereo partly drawn) [Example 2.49.203., N-Cyclopropyl-4-(1-(((2S,3R,4S,5R,6R)-3,5-dihydroxy-6-(hydroxymethyl)-4-(4-(3,4,5-trifluorophenyl)-1H-1,2,3-triazol-1-yl)tetrahydro-2H-pyran-2-yl)thio)-2-(ethyl(methyl)amino)-2-oxoethyl)-4-hydroxypiperidine-1-carboxamide] | IC50 [1, 7]: 50 nM |
| 120 | CCN(C)C(=O)C(S[C@@H]1O[C@H](CO)[C@H](O)[C@H](n2cc(-c3cc(F)c(F)c(F)c3)nn2)[C@H]1OC)C1(O)CCC(F)(F)CC1 (stereo partly drawn) [Example 2.44.203.I., 2-(4,4-Difluoro-1-hydroxycyclohexyl)-N-ethyl-2-(((2S,3R,4S,5R,6R)-5-hydroxy-6-(hydroxymethyl)-3-methoxy-4-(4-(3,4,5-trifluorophenyl)-1H-1,2,3-triazol-1-yl)tetrahydro-2H-pyran-2-yl)thio)-N-methylacetamide] | IC50 [1, 3]: 40 nM |
| 800 | O=C([C@@H](S[C@@H]1O[C@H](CO)[C@H](O)[C@H](n2cc(-c3cc(F)c(F)c(F)c3)nn2)[C@H]1O)C1(O)CCOCC1)N1CCCCC1 [Example 2.41.208S., (S)-2-(((2S,3R,4S,5R,6R)-3,5-Dihydroxy-6-(hydroxymethyl)-4-(4-(3,4,5-trifluorophenyl)-1H-1,2,3-triazol-1-yl)tetrahydro-2H-pyran-2-yl)thio)-2-(4-hydroxytetrahydro-2H-pyran-4-yl)-1-(piperidin-1-yl)ethan-1-one] | IC50 [1, 4]: 20 nM |
| 80 | CCN(C)C(=O)[C@H](S[C@@H]1O[C@H](CO)[C@H](O)[C@H](n2cc(-c3cc(F)c(F)c(F)c3)nn2)[C@H]1OC)C1(O)CCN(C(=O)NC2CC2)CC1 [Example 2.49.226R.I., N-Cyclopropyl-4-((R)-2-(ethyl(methyl)amino)-1-(((2S,3R,4S,5R,6R)-5-hydroxy-6-(hydroxymethyl)-3-methoxy-4-(4-(3,4,5-trifluorophenyl)-1H-1,2,3-triazol-1-yl)tetrahydro-2H-pyran-2-yl)thio)-2-oxoethyl)-4-hydroxypiperidine-1-carboxamide] | IC50 [1, 7]: 1740 nM |
| 28300 | CCN(C)C(=O)[C@H](S[C@@H]1O[C@H](CO)[C@H](O)[C@H](n2cc(-c3cc(F)c(F)c(F)c3)nn2)[C@H]1O)C1(O)CCC1 [Example 2.34.203R., (R)-2-(((2S,3R,4S,5R,6R)-3,5-Dihydroxy-6-(hydroxymethyl)-4-(4-(3,4,5-trifluorophenyl)-1H-1,2,3-triazol-1-yl)tetrahydro-2H-pyran-2-yl)thio)-N-ethyl-2-(1-hydroxycyclobutyl)-N-methylacetamide] | IC50 [1, 2]: 3580 nM |

Reference: patent US12410208B2, “(2-acetamidyl)thio-beta-D-galactopyranoside derivatives” (Idorsia Pharmaceuticals Ltd, priority 2020, dated 2025)
